# Laboratory results from patent US20210038607A1, “OXADIAZOLYLTHIOPHENE DERIVATIVES USEFUL AS HISTONE DEACETYLASE INHIBITORS” (Karus Therapeutics Limited, priority 2018, published 2021).
# Legend:
# Human HDAC1 = target: T1, Human HDAC1 (Homo sapiens, UniProt Q13547); assay: HDAC1 biochemical assay, AMC-labeled peptide substrate; details: read-out: HDAC Isoform IC50 (nM) 1
# T1 construct: full length with C-terminal His-tag and C-terminal FLAG-tag; His (C); FLAG (C); host or cells: baculovirus expression system
# T1 sequence (Q13547 whole entry, canonical isoform): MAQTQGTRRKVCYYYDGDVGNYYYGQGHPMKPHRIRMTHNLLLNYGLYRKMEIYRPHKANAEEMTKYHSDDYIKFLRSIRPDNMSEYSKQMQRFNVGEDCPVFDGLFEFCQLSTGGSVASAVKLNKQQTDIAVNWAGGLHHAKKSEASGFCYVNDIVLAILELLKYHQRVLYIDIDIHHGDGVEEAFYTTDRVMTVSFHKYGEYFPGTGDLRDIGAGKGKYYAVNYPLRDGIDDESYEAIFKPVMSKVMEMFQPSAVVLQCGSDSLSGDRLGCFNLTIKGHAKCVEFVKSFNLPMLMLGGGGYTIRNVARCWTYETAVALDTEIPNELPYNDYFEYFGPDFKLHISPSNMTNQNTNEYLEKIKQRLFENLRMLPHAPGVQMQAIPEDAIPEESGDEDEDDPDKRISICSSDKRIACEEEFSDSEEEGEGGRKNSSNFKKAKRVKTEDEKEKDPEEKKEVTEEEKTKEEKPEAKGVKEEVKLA
# How it was run: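 Baculovirus-expressed full-length human HDAC1 with His and FLAG tags, 0.3 ng/ul, incubated 1 h at 30° C with compound and 50 μM RHKK(Ac)AMC in Tris pH 8.0 buffer with BSA and 1% DMSO. Developer then releases AMC from deacetylated substrate; fluorescence read at 360/460 nm.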
# Human HDAC4 = target: T2, Human HDAC4 (Homo sapiens, UniProt P56524); assay: HDAC4 biochemical assay, class IIa-specific substrate; details: read-out: HDAC Isoform IC50 (nM) 4
# T2 construct: amino acids 627-1085 with N-terminal GST tag; GST (N); host or cells: baculovirus expression system
# T2 sequence (P56524 627-1084 limits assumed): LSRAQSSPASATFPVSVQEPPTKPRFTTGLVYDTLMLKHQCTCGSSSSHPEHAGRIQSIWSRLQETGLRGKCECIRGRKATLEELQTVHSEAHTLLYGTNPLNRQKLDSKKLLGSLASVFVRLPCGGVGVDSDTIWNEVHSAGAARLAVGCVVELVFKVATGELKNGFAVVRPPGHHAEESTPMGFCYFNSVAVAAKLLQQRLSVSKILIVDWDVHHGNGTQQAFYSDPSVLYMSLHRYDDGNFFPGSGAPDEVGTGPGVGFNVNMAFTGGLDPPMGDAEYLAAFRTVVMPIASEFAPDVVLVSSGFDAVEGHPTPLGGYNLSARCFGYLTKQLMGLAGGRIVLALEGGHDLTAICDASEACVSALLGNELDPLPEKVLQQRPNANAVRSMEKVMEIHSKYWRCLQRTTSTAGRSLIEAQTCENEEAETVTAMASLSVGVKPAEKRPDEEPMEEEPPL
# How it was run: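 GST-tagged human HDAC4 (aa 627-1085, baculovirus) at 0.004 ng/ul was incubated 30 min at room temperature with 50 μM class IIa-specific substrate BOC-Lys(trifluoroacetyl)-AMC in Tris-HCl pH 8.0 buffer with BSA, 1% DMSO. Developer then released AMC, read at 360/460 nm.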
# Human HDAC5 = target: T3, Human HDAC5 (Homo sapiens, UniProt Q9UQL6); assay: HDAC5 biochemical assay, class IIa-specific substrate; details: read-out: HDAC Isoform IC50 (nM) 5
# T3 construct: full length with C-terminal His tag, MW=51.1 kDa; His (C); host or cells: baculovirus expression system
# T3 sequence (Q9UQL6 656-1122 limits assumed): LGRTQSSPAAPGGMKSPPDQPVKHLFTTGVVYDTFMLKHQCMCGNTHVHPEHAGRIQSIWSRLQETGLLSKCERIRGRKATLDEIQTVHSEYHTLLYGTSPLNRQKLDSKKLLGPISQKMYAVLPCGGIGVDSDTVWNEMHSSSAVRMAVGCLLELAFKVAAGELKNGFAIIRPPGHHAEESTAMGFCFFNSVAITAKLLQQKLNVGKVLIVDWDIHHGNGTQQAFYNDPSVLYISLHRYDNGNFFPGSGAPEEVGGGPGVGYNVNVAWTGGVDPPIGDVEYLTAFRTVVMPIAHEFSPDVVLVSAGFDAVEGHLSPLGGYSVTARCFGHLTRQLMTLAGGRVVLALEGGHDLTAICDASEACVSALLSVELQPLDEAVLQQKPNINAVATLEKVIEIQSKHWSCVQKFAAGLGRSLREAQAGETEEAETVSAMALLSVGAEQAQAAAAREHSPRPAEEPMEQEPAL
# How it was run: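 Full-length C-terminal His-tagged HDAC5 from baculovirus (0.05 ng/ul) incubated 30 min at room temperature with 50 μM Boc-Lys(trifluoroacetyl)-AMC and compound, Tris pH 8.0 buffer with BSA, 1% DMSO. Developer then releases AMC; fluorescence 360/460 nm.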
# Recombinant human HDAC6 = target: T4, Recombinant human HDAC6 (Homo sapiens, UniProt Q9UBN7); assay: HDAC6 biochemical assay, AMC-labeled peptide substrate; details: HDAC6; read-out: HDAC Isoform IC50 (nM) 6
# T4 construct: full length, MW=159 kDa; GST (N); host or cells: Sf9 insect cells (baculovirus)
# T4 sequence (Q9UBN7 1-1215): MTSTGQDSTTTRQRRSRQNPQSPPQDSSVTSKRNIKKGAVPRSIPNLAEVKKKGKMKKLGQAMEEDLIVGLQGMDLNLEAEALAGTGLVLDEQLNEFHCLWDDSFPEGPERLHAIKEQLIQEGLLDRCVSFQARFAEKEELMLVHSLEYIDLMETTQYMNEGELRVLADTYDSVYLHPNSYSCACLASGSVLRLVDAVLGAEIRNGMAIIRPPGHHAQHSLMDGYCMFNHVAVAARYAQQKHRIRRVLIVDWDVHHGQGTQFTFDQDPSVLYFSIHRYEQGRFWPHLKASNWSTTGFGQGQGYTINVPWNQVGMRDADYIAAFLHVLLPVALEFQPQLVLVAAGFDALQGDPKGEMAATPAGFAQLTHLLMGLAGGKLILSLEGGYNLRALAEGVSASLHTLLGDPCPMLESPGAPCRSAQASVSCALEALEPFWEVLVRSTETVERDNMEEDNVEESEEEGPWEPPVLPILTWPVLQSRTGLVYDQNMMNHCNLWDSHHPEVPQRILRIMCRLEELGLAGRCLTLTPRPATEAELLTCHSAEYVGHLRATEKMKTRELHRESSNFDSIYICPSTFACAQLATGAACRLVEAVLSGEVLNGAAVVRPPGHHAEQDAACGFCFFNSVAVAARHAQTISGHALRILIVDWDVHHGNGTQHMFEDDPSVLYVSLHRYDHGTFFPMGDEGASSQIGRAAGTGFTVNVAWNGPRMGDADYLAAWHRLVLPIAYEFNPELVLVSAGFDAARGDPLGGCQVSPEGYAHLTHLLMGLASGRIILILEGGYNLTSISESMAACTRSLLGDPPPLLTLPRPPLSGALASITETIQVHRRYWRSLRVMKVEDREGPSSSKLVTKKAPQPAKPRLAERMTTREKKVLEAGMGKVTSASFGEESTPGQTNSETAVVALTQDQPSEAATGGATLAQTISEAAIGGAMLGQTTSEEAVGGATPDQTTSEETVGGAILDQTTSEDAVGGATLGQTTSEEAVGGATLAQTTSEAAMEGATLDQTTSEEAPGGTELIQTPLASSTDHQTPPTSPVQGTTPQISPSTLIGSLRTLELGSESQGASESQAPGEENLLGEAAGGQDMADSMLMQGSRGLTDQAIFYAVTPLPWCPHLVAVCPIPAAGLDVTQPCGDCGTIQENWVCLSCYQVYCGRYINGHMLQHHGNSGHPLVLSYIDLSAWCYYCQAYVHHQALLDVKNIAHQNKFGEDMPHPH
# How it was run: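 Two-step fluorogenic read-out: enzyme deacetylates 50 μM RHKK(Ac)AMC for 1 h at 30° C in pH 8.0 Tris buffer with BSA and 1% DMSO, then developer cleavage gives signal at Ex 360/Em 460. Enzyme: 0.3 ng/ul recombinant full-length human HDAC6, GST-tagged, Sf9-expressed.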
# Human HDAC7 = target: T5, Human HDAC7 (Homo sapiens, UniProt Q8WUI4); assay: HDAC7 biochemical assay, class IIa-specific substrate; details: read-out: HDAC Isoform IC50 (nM) 7
# T5 construct: (a.a. 518-end) with N-terminal GST tag; GST (N); host or cells: baculovirus expression system
# T5 sequence (Q8WUI4 518-952 limits assumed): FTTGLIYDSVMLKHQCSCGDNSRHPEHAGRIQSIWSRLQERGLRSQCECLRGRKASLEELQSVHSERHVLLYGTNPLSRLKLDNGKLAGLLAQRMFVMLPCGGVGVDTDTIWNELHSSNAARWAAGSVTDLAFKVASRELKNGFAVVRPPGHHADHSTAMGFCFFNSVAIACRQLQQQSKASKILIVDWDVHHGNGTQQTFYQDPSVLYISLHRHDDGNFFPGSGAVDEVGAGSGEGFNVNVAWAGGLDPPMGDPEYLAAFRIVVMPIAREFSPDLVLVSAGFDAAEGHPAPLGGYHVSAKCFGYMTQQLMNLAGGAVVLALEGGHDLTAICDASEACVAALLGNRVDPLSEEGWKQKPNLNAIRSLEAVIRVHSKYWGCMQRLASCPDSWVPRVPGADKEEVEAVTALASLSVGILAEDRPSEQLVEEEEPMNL
# How it was run: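 GST-tagged HDAC7 (a.a. 518-end, baculovirus-expressed) at 0.001 ng/ul with 50 μM Boc-Lys(trifluoroacetyl)-AMC substrate, 30 min at room temperature in pH 8.0 Tris buffer with BSA, 1% DMSO final. Developer then releases AMC; fluorescence read at 360/460 nm.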
# Human HDAC9 = target: T6, Human HDAC9 (Homo sapiens, UniProt Q9UKV0); assay: HDAC9 biochemical assay, class IIa-specific substrate; details: read-out: HDAC Isoform IC50 (nM) 9
# T6 construct: amino acids 604-1066 with C-terminal His tag; His (C); host or cells: baculovirus expression system
# T6 sequence (Q9UKV0 604-1066 isoform Q9UKV0-5): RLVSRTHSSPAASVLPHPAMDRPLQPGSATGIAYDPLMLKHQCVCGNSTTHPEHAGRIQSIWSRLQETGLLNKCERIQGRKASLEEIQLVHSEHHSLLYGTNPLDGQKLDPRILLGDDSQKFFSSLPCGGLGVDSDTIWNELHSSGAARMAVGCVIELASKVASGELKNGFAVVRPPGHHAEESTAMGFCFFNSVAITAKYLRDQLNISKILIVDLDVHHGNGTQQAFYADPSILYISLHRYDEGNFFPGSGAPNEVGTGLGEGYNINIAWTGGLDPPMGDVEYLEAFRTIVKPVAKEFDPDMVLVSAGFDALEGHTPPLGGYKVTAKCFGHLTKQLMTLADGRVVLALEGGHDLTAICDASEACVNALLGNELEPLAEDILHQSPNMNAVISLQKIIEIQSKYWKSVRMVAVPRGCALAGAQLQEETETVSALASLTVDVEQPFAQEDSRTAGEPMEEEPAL
# How it was run: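 HDAC9 residues 604-1066 (C-terminal His tag, baculovirus-expressed) at 0.06 ng/ul with 50 μM class IIa substrate Boc-Lys(trifluoroacetyl)-AMC in Tris-HCl pH 8.0 buffer with BSA and 1% DMSO. 30 min at room temperature, then developer added; fluorescence read at 360/460 nm Ex/Em.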
Compound,IC50 (Human HDAC1),IC50 (Human HDAC4),IC50 (Human HDAC5),IC50 (Recombinant human HDAC6),IC50 (Human HDAC7),IC50 (Human HDAC9)
"FC(F)(F)c1nc(-c2ccc(CN(c3cnccn3)c3cccc(N4CCOCC4)n3)s2)no1 [Example W, N-[6-(Morpholin-4-yl)pyridin-2-yl]-N-({5-[5-(trifluoromethyl)-1,2,4-oxadiazol-3-yl]thiophen-2-yl}methyl)pyrazin-2-amine]",> 10000 nM,≤ 10000 nM,≤ 10000 nM,≤ 10000 nM,≤ 10000 nM,≤ 10000 nM
"FC(F)(F)c1cnnc(N(Cc2ccc(-c3noc(C(F)(F)F)n3)s2)c2ccncc2)c1 [Example EJ, N-(Pyridin-4-yl)-5-(trifluoromethyl)-N-({5-[5-(trifluoromethyl)-1,2,4-oxadiazol-3-yl]thiophen-2-yl}methyl)pyridazin-3-amine]",> 10000 nM,≤ 10000 nM,≤ 10000 nM,≤ 10000 nM,≤ 10000 nM,≤ 10000 nM
"COc1cnnc(N(Cc2ccc(-c3noc(C(F)(F)F)n3)s2)c2cnccn2)c1 [Example DV, 5-Methoxy-N-(pyrazin-2-yl)-N-({5-[5-(trifluoromethyl)-1,2,4-oxadiazol-3-yl]thiophen-2-yl}methyl)pyridazin-3-amine]",> 10000 nM,≤ 10000 nM,≤ 1000 nM,≤ 10000 nM,≤ 10000 nM,≤ 10000 nM
"FC(F)(F)c1nc(-c2ccc(CN(c3cnccn3)c3ncccc3C3CC3)s2)no1 [Example AM, N-(3-Cyclopropylpyridin-2-yl)-N-({5-[5-(trifluoromethyl)-1,2,4-oxadiazol-3-yl]thiophen-2-yl}methyl)pyrazin-2-amine]",> 10000 nM,≤ 500 nM,≤ 500 nM,≤ 10000 nM,≤ 1000 nM,≤ 10000 nM
"COc1ncc(N(Cc2ccc(-c3noc(C(F)(F)F)n3)s2)c2cnccn2)nc1OC [Example BW, 5,6-Dimethoxy-N-(pyrazin-2-yl)-N-({5-[5-(trifluoromethyl)-1,2,4-oxadiazol-3-yl]thiophen-2-yl}methyl)pyrazin-2-amine]",> 10000 nM,≤ 10000 nM,≤ 10000 nM,≤ 10000 nM,≤ 10000 nM,≤ 10000 nM

# The remaining lines, values ahead:
IC50 (Human HDAC1),IC50 (Human HDAC4),IC50 (Human HDAC5),IC50 (Recombinant human HDAC6),IC50 (Human HDAC7),IC50 (Human HDAC9),Compound
> 10000 nM,≤ 10000 nM,≤ 10000 nM,≤ 10000 nM,≤ 10000 nM,≤ 10000 nM,"COc1ccnc(N(Cc2ccc(-c3noc(C(F)(F)F)n3)s2)c2cnccn2)n1 [Example AU, 4-Methoxy-N-(pyrazin-2-yl)-N-({5-[5-(trifluoromethyl)-1,2,4-oxadiazol-3-yl]thiophen-2-yl}methyl)pyrimidin-2-amine]"
> 10000 nM,≤ 500 nM,≤ 1000 nM,≤ 1000 nM,≤ 1000 nM,≤ 10000 nM,"Cc1cncnc1N(Cc1ccc(-c2noc(C(F)(F)F)n2)s1)c1cnccn1 [Example CO, 5-Methyl-N-(pyrazin-2-yl)-N-({5-[5-(trifluoromethyl)-1,2,4-oxadiazol-3-yl]thiophen-2-yl}methyl)pyrimidin-4-amine]"
> 10000 nM,≤ 10000 nM,≤ 10000 nM,≤ 10000 nM,≤ 10000 nM,≤ 10000 nM,"Cc1nc(N2CCCC2)cc(N(Cc2ccc(-c3noc(C(F)(F)F)n3)s2)c2cnccn2)n1 [Example CQ, 2-Methyl-N-(pyrazin-2-yl)-6-(pyrrolidin-1-yl)-N-({5-[5-(trifluoromethyl)-1,2,4-oxadiazol-3-yl]thiophen-2-yl}methyl)pyrimidin-4-amine]"
> 10000 nM,≤ 10000 nM,≤ 500 nM,≤ 500 nM,≤ 1000 nM,≤ 10000 nM,"Fc1cc(-c2noc(C(F)(F)F)n2)sc1CN(c1cnccn1)c1cnccn1 [Example EY, N-({3-Fluoro-5-[5-(trifluoromethyl)-1,2,4-oxadiazol-3-yl]thiophen-2-yl}methyl)-N-(pyrazin-2-yl)pyrazin-2-amine]"
> 10000 nM,≤ 10000 nM,≤ 10000 nM,≤ 10000 nM,≤ 10000 nM,≤ 10000 nM,"Cc1cnc(N(Cc2ccc(-c3noc(C(F)(F)F)n3)s2)c2cnccn2)nc1 [Example AW, 5-Methyl-N-(pyrazin-2-yl)-N-({5-[5-(trifluoromethyl)-1,2,4-oxadiazol-3-yl]thiophen-2-yl}methyl)pyrimidin-2-amine]"
> 10000 nM,≤ 10000 nM,≤ 1000 nM,≤ 1000 nM,≤ 10000 nM,≤ 10000 nM,"FC(F)(F)c1cnnc(N(Cc2ccc(-c3noc(C(F)(F)F)n3)s2)c2ccncn2)c1 [Example EL, N-(Pyrimidin-4-yl)-5-(trifluoromethyl)-N-({5-[5-(trifluoromethyl)-1,2,4-oxadiazol-3-yl]thiophen-2-yl}methyl)pyridazin-3-amine]"
≤ 10000 nM,≤ 10000 nM,≤ 10000 nM,≤ 10000 nM,≤ 10000 nM,≤ 10000 nM,"CN(C)c1cc(N(Cc2ccc(-c3noc(C(F)(F)F)n3)s2)c2cnccn2)ncn1 [Example CI, N4,N4-Dimethyl-N6-(pyrazin-2-yl)-N6-({5-[5-(trifluoromethyl)-1,2,4-oxadiazol-3-yl]thiophen-2-yl}methyl)pyrimidine-4,6-diamine]"
